{"source": "patent US20040096453A1", "about": "“Methods and compositions to treat glycosaminoglycan-associated molecular interactions” (Neurochem (International) Limited, priority 1998, published 2004)", "origin": "cited, not measured here", "system": "two streptococcal proteins (9,15 Kda)", "settings": "basement membranes of cardiac muscle and renal tissues; Bergey & Stenson", "data": [{"substance": "heparin", "values": [{"measurement": "inhibition of binding of streptococcal proteins to basement membranes", "value": "completely inhibited"}]}]}
